Experiments:
ERβ = target: T1, ERβ (Homo sapiens, UniProt Q92731); test: fluorescence polarization competition, displacement of fluorescent estrogen ES2 (Beacon […]); assay type: binding; conditions: 1 nM ES2 tracer, relative to estradiol = 100
T1 construct: gene ESR2; isolated recombinant human ERβ (Invitrogen)

ERα = target: T2, ERα (Homo sapiens, UniProt P03372); test: as above; assay type: binding; conditions: 1 nM ES2 tracer, relative to estradiol = 100
T2 construct: gene ESR1; isolated recombinant human ERα (Invitrogen)
T2 sequence (P03372 1-595): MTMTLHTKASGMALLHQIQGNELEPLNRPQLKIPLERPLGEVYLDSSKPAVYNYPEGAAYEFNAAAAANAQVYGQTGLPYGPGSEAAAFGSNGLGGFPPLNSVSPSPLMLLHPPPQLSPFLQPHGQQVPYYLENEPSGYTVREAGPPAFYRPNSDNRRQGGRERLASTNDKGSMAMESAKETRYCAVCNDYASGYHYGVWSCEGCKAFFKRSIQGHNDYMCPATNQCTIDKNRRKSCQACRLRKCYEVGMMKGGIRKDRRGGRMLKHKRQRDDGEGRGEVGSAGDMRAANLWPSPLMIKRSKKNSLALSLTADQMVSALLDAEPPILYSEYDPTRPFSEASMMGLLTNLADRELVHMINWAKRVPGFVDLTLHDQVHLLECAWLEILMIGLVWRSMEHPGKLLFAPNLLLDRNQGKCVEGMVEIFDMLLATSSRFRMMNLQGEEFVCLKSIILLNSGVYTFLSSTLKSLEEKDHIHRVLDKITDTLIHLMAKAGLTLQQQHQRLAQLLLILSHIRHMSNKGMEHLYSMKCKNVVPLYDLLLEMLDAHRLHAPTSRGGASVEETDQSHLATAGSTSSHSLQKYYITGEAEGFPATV

T1 sequence (Q92731 whole entry): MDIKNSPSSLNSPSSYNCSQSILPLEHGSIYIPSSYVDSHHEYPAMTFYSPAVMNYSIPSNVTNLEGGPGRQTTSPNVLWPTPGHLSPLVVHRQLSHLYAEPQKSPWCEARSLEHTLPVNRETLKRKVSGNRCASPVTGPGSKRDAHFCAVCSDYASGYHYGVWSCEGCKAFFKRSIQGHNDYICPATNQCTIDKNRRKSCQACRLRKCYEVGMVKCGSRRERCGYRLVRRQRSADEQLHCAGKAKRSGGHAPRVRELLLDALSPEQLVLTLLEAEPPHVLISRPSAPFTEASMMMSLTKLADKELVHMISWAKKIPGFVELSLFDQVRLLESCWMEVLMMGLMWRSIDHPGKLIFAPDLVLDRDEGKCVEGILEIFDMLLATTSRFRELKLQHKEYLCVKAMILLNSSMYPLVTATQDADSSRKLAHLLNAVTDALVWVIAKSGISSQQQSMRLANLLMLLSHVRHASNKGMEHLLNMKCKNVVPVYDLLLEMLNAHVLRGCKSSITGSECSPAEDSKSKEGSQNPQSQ

Row | Structure (SMILES) | RBAβ^a (ERβ; E/Z isomer tested not stated) | RBAα^a (ERα; E/Z isomer tested not stated) | RBAβ^a (ERβ) | RBAα^a (ERα)
1 | CCC(=C(c1ccc(O)cc1)c1ccc(C(=O)O)cc1)c1ccc(O)cc1 (mixture of isomers) [compound 10, 4-[1,2-bis-(4-hydroxy-phenyl)-but-1-enyl]-benzoic acid] | 16.3 ± 3.9 | 12.2 ± 2.3 | – | –
2 | CC/C(=C(\c1ccc(O)cc1)c1ccc(OC(=O)CCl)cc1)c1ccc(O)cc1 [6a, Z-Chloro-acetic acid 4-[1,2 bis-(4-hydroxy-phenyl)-but-1-enyl]-phenyl ester] | – | – | 62.14 ± 4.3 | 120.08 ± 8.5
3 | CC/C(=C(\c1ccc(O)cc1)c1ccc(OC(=O)CBr)cc1)c1ccc(O)cc1 [6b, Z-Bromo-acetic acid 4-[1,2 bis-(4-hydroxy-phenyl)-but-1-enyl]-phenyl ester] | – | – | 82.39 ± 4.9 | 96.37 ± 7.2
4 | CC/C(=C(\c1ccc(O)cc1)c1ccc(OC(=O)CN(C)C)cc1)c1ccc(O)cc1 [8a, Z-Dimethylamino-acetic acid 4-[1,2-bis-(4-hydroxy-phenyl)-but-1-enyl]-phenyl ester] | – | – | 72.72 ± 2.1 | 101.35 ± 10.2
5 | CC/C(=C(\c1ccc(O)cc1)c1ccc(OC(=O)CN(CC)CC)cc1)c1ccc(O)cc1 [8b, Z-Diethylamino-acetic acid 4-[1,2-bis-(4-hydroxy-phenyl)-but-1-enyl]-phenyl ester] | – | – | 77.37 ± 4.5 | 108.12 ± 11.9
6 | CC/C(=C(\c1ccc(O)cc1)c1ccc(OC(=O)CN2CCOCC2)cc1)c1ccc(O)cc1 [8c, Z-Morpholin-4-yl-acetic acid 4-[1,2-bis-(4-hydroxy-phenyl)-but-1-enyl]-phenyl ester] | – | – | 16.79 ± 1.4 | 8.06 ± 0.9
7 | CC/C(=C(\c1ccc(O)cc1)c1ccc(C(=O)NCCBr)cc1)c1ccc(O)cc1 [compound 13, (E)-4-[1,2-bis-(4-hydroxy-phenyl)-but-1-enyl]-n-(2-bromo-ethyl)-benzamide] | – | – | 8.40 ± 2.5 | 17.4 ± 3.0
8 | CC/C(=C(\c1ccc(O)cc1)c1ccc(C(=O)NCCCBr)cc1)c1ccc(O)cc1 [compound 14, (E)-4-[1,2-bis-(4-hydroxy-phenyl)-but-1-enyl]-n-(3-bromo-propyl)-benzamide] | – | – | 6.15 ± 0.6 | 7.94 ± 0.6
